Laboratory results as given in patent US8247211B2, “Glycopeptide antibiotics” (American Cyanamid Company, priority 2001, dated 2012).
In brackets after ≈: the same amount, converted by molar mass.

How the values were obtained:
Experiment in all cases: In vitro antibacterial evaluation: minimum inhibitory concentration (MIC), broth dilution method
Type in all cases: cell-based
Enterococcus sp. = system: Enterococcus sp.
How it was run: (§1)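 Following NCCLS approved standard M7-A2, compounds are serially diluted from 64 to 0.06 μg/mL in Muller-Hinton II […] and inoculated at 5×10^5 CFU/mL; the MIC is the minimum concentration at which growth is inhibited.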

Escherichia coli = system: Escherichia coli
How it was run: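 NCCLS M7-A2 broth dilution; Muller-Hinton II […]; 5×10^5 CFU/mL; 64-0.06 μg/mL. MIC = lowest concentration with no growth.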

Streptococcus sp. = system: Streptococcus sp.
How it was run: as §1

Staphylococcus sp. = settings: broth dilution, 18 hours at 35° C.
How it was run: as §1

[1] = broth dilution, inoculum 5×10^5 CFU/mL, 18 hours at 35° C.

CC(c1ccccc1)C1NC(=O)CNC(=O)C(CO)NC(=O)C(C(O)C2CNC(=N)N2C2OC(CO)C(O)C(O)C2O)NC(=O)C(C(O)C2CNC(=N)N2)NC(=O)C(Cc2ccc(OC3OC(CO)C(OC4OC5COC(c6cccc(Oc7ccccc7)c6)OC5C(O)C4O)C(O)C3O)cc2)NC1=O (stereo not drawn) [Example 170, Cyclo[glycyl-β-methylphenylalanyl-O-[4-O-[4,6-O-(3-phenoxybenzylidene)hexopyranosyl]-hexopyranosyl]tyrosyl-3-(2-iminoimidazoliclin-4-yl)seryl-3-(3-hexopyranosyl-2-iminoimidazolidin-4-yl)serylseryl]]
MIC Enterococcus avium (GC 4558) (Enterococcus sp.; [1]): 4 µg/mL (≈ 2.71 µM)
MIC Enterococcus faecalis (ATCC 29212) (Enterococcus sp.; [1]): 4 µg/mL (≈ 2.71 µM)
MIC Enterococcus faecalis (GC 2242) (Enterococcus sp.; [1]): 4 µg/mL (≈ 2.71 µM)
MIC Enterococcus faecalis (GC 2691) (Enterococcus sp.; [1]): 4 µg/mL (≈ 2.71 µM)
MIC Enterococcus faecalis (GC 3059) (Enterococcus sp.; [1]): 4 µg/mL (≈ 2.71 µM)
MIC Enterococcus faecalis (GC 4552) (Enterococcus sp.; [1]): 4 µg/mL (≈ 2.71 µM)
MIC Enterococcus faecalis (GC 4553) (Enterococcus sp.; [1]): 4 µg/mL (≈ 2.71 µM)
MIC Enterococcus faecalis (GC 4554) (Enterococcus sp.; [1]): 2 µg/mL (≈ 1.36 µM)
MIC Enterococcus faecalis (GC 6189) (Enterococcus sp.; [1]): 4 µg/mL (≈ 2.71 µM)
MIC Enterococcus faecium (GC 2243) (Enterococcus sp.; [1]): 4 µg/mL (≈ 2.71 µM)
MIC Enterococcus faecium (GC 4556) (Enterococcus sp.; [1]): 4 µg/mL (≈ 2.71 µM)
MIC Enterococcus faecium (GC 4557) (Enterococcus sp.; [1]): 4 µg/mL (≈ 2.71 µM)
MIC Enterococcus faecalis (ATCC 29212) (Enterococcus sp.; strain ATCC 29212): 4 µg/mL (≈ 2.71 µM)
MIC Enterococcus faecalis (GC 2242) (Enterococcus sp.; strain GC 2242): 4 µg/mL (≈ 2.71 µM)
MIC Enterococcus faecium (GC 2243) (Enterococcus sp.; strain GC 2243): 4 µg/mL (≈ 2.71 µM)
MIC Enterococcus faecalis (GC 2691) (Enterococcus sp.; strain GC 2691): 4 µg/mL (≈ 2.71 µM)
MIC Enterococcus faecalis (GC 3059) (Enterococcus sp.; strain GC 3059): 4 µg/mL (≈ 2.71 µM)
MIC Enterococcus faecalis (GC 4552) (Enterococcus sp.; strain GC 4552): 4 µg/mL (≈ 2.71 µM)
MIC Enterococcus faecalis (GC 4553) (Enterococcus sp.; strain GC 4553): 4 µg/mL (≈ 2.71 µM)
MIC Enterococcus faecalis (GC 4554) (Enterococcus sp.; strain GC 4554): 2 µg/mL (≈ 1.36 µM)
MIC Enterococcus faecium (GC 4556) (Enterococcus sp.; strain GC 4556): 4 µg/mL (≈ 2.71 µM)
MIC Enterococcus faecium (GC 4557) (Enterococcus sp.; strain GC 4557): 4 µg/mL (≈ 2.71 µM)
MIC Enterococcus avium (GC 4558) (Enterococcus sp.; strain GC 4558): 4 µg/mL (≈ 2.71 µM)
MIC Enterococcus faecalis (GC 6189) (Enterococcus sp.; strain GC 6189): 4 µg/mL (≈ 2.71 µM)
MIC Escherichia coli (ATCC 25922) (Escherichia coli; strain ATCC 25922): >64 µg/mL
MIC Escherichia coli (GC 4559) (Escherichia coli; strain GC 4559): >64 µg/mL
MIC Escherichi coli (GC 4560) (Escherichia coli; strain GC 4560): 4 µg/mL (≈ 2.71 µM)
MIC Streptococcus agalactiae (GC 4564) (Streptococcus sp.; [1]): <0.06 µg/mL
MIC Streptococcus pneumoniae (ATCC 6301) (Streptococcus sp.; [1]): <0.06 µg/mL
MIC Streptococcus pneumoniae (GC 1894) (Streptococcus sp.; [1]): <0.06 µg/mL
MIC Streptococcus pneumoniae (GC 4565) (Streptococcus sp.; [1]): <0.06 µg/mL
MIC Streptococcus pyogenes (GC 4563) (Streptococcus sp.; [1]): <0.06 µg/mL
MIC Streptococcus pneumoniae (ATCC 6301) (Streptococcus sp.; strain ATCC 6301): <0.06 µg/mL
MIC Streptococcus pneumoniae (GC 1894) (Streptococcus sp.; strain GC 1894): <0.06 µg/mL
MIC Streptococcus pyogenes (GC 4563) (Streptococcus sp.; strain GC 4563): <0.06 µg/mL
MIC Streptococcus agalactiae (GC 4564) (Streptococcus sp.; strain GC 4564): <0.06 µg/mL
MIC Streptococcus pneumoniae (GC 4565) (Streptococcus sp.; strain GC 4565): <0.06 µg/mL
MIC Coagulase Negative Staphylococcus (GC 4547) (Staphylococcus sp.; 5×10^5 CFU/mL): 4 µg/mL (≈ 2.71 µM)
MIC Coagulase Negative Staphylococcus (GC 4548) (Staphylococcus sp.; 5×10^5 CFU/mL): 1 µg/mL (≈ 0.678 µM)
MIC Coagulase Negative Staphylococcus (GC 4549) (Staphylococcus sp.; 5×10^5 CFU/mL): 2 µg/mL (≈ 1.36 µM)
MIC Coagulase Negative Staphylococcus (GC 4551) (Staphylococcus sp.; 5×10^5 CFU/mL): 1 µg/mL (≈ 0.678 µM)
MIC Coagulase Negative Staphylococcus (GC 6257) (Staphylococcus sp.; 5×10^5 CFU/mL): 1 µg/mL (≈ 0.678 µM)
MIC Staphylococcus aureus (ATCC 29213) (Staphylococcus sp.; 5×10^5 CFU/mL): 4 µg/mL (≈ 2.71 µM)
MIC Staphylococcus aureus (GC 1131) (Staphylococcus sp.; 5×10^5 CFU/mL): 4 µg/mL (≈ 2.71 µM)
MIC Staphylococcus aureus (GC 3051) (Staphylococcus sp.; 5×10^5 CFU/mL): 4 µg/mL (≈ 2.71 µM)
MIC Staphylococcus aureus (GC 3053) (Staphylococcus sp.; 5×10^5 CFU/mL): 1 µg/mL (≈ 0.678 µM)
MIC Staphylococcus aureus (GC 4541) (Staphylococcus sp.; 5×10^5 CFU/mL): 2 µg/mL (≈ 1.36 µM)
MIC Staphylococcus aureus (GC 4542) (Staphylococcus sp.; 5×10^5 CFU/mL): 4 µg/mL (≈ 2.71 µM)
MIC Staphylococcus aureus (GC 4544) (Staphylococcus sp.; 5×10^5 CFU/mL): 2 µg/mL (≈ 1.36 µM)
MIC Staphylococcus aureus (GC 4545) (Staphylococcus sp.; 5×10^5 CFU/mL): 4 µg/mL (≈ 2.71 µM)
MIC Staphylococcus aureus-SMITH (GC 4543) (Staphylococcus sp.; 5×10^5 CFU/mL): 4 µg/mL (≈ 2.71 µM)
MIC Staphylococcus haemolyticus (GC 4546) (Staphylococcus sp.; 5×10^5 CFU/mL): 8 µg/mL (≈ 5.42 µM)
MIC Staphylococcus aureus (ATCC 29213) (Staphylococcus sp.; strain ATCC 29213): 4 µg/mL (≈ 2.71 µM)
MIC Staphylococcus aureus (GC 1131) (Staphylococcus sp.; strain GC 1131): 4 µg/mL (≈ 2.71 µM)
MIC Staphylococcus aureus (GC 3051) (Staphylococcus sp.; strain GC 3051): 4 µg/mL (≈ 2.71 µM)
MIC Staphylococcus aureus (GC 3053) (Staphylococcus sp.; strain GC 3053): 1 µg/mL (≈ 0.678 µM)
MIC Staphylococcus aureus (GC 4541) (Staphylococcus sp.; strain GC 4541): 2 µg/mL (≈ 1.36 µM)
MIC Staphylococcus aureus (GC 4542) (Staphylococcus sp.; strain GC 4542): 4 µg/mL (≈ 2.71 µM)
MIC Staphylococcus aureus (GC 4544) (Staphylococcus sp.; strain GC 4544): 2 µg/mL (≈ 1.36 µM)
MIC Staphylococcus aureus (GC 4545) (Staphylococcus sp.; strain GC 4545): 4 µg/mL (≈ 2.71 µM)
